10 compounds from US8987274B2, “Macrocycles that increase p53 activity and the uses thereof” (Merck Sharp & Dohme Corp, priority 2011, dated 2015) can be followed below.

One assay concerns the target HDM2 protein (Homo sapiens, UniProt Q00987). Put plainly: fluorescence polarization screening assay (FP IC50). The conditions noted are these: first value of the cell (FP), read-out: FP/ SJSA IC50 (nM): FP IC50. In kind it is binding. The protocol: The compounds were evaluated to determine activity at the HDM2 protein by known methods such as the fluorescence polarization screening assay that measures the inhibitory concentration that achieves 50% of maximal activity (FP IC50) and the dissociation constant for inhibitor binding (FP Ki). [Zhang et al., J. Analytical Biochemistry 331: 138-146 (2004)].
(In general: Fluorescence polarisation rises when a labelled molecule tumbles more slowly, as on binding a larger partner.)

The next assay has as its system SJSA. The assay can be described thus: Cell Viability Assay (CellTiter-Glo, ATP quantitation). In kind it is cell-based. The conditions noted are these: second value of the cell (SJSA cell viability, e.g. 72 hours), read-out: FP/ SJSA IC50 (nM): SJSA IC50. The protocol:
Additionally, compounds were tested for activity at the HDM2 protein using the Cell Viability Assay, which measures the number of viable cells in culture after treatment with the inventive compound for a certain period of time e.g. 72 hours based on quantitation of the ATP present (Cell Viability. IC50). [CellTiter-Glo® Luminescent Cell Viability Assay from Promega].
(In ATP-based viability assays light output follows the ATP content of the culture.)

Like-named read-outs stand apart in the source and are kept apart here.

Sequence of HDM2 protein (Q00987 whole entry): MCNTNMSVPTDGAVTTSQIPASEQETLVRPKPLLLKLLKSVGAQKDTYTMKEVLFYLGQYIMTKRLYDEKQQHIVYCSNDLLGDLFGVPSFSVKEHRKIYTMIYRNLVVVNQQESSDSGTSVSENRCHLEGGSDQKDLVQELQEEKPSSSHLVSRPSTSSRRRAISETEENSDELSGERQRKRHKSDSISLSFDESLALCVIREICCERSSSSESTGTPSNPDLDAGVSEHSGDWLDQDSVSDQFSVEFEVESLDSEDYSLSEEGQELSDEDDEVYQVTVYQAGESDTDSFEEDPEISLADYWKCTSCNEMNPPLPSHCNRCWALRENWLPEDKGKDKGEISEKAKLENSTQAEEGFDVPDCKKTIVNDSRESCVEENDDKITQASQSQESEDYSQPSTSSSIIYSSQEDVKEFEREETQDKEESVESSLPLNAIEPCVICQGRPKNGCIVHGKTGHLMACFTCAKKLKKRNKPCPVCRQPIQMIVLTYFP

As for `O=C1c2c(C(F)(F)F)ccnc2OCCCC[C@H]2N1CCC[C@@]2(Oc1csc(C(F)(F)F)c1)C(=O)N1CCN(c2ccccc2OCCO)CC1` [Compound 9, 1-[2-(2- HYDROXYETHOXY) PHENYL]-4-[[(9aR)- 7,8,9,9a,10,11,12,13- OCTAHYDRO-15-OXO-1- (TRIFLUOROMETHYL)- 10(S)-[[5- (TRIFLUOROMETHYL)- 3-THIENYL]OXY]-6H,15H- DIPYRIDO[1,2-e:2′,3′-b][1,5] OXAZECIN-10-YL] CARBONYL]PIPERAZINE.], the IC50 at HDM2 protein (class symbol) is 1000 to 3000 nM.
`COCCOc1ccccc1N1CCN(C(=O)[C@]2(Oc3csc(C(F)(F)F)c3)CCCN3C(=O)c4c(C(F)(F)F)ccnc4OCC/C=C/C[C@@H]32)CC1` [Compound 1, 1-[2-(2- METHOXYETHOXY) PHENYL]-4-[[(10aR)- 6,7,10,10a,11,12,13,14- OCTAHYDRO-16- OXO-1- (TRIFLUOROMETHYL)- 11(S)-[[5- (TRIFLUOROMETHYL)- 3-THIENYL]OXY]-16H- DIPYRIDO[1,2-e:2′3′-b][1,5] OXOAAZACYCLOUNDECIN- 11-YL]CARBONYL] PIPERAZINE.]: the IC50 at HDM2 protein (class symbol) is 1 to 100 nM; with SJSA (class symbol), 101 to 500 nM.
Taken in the same sequence, the figures for `N#CC1(c2ccccc2OCCCC2(C(=O)O)CCC2)CCN(C(=O)[C@]2(Oc3csc(C(F)(F)F)c3)CCCN3C(=O)c4c(C(F)(F)F)ccnc4OCCCCCC[C@@H]32)CC1` [Compound 13, 1-[3-[2-[4-CYANO-1- [[(11a)-7,8,9,10,11,11a,12,13, 14,15-DECAHYDRO-17- OXO-1- (TRIFLUOROMETHYL)- 12(S)-[[5- (TRIFLUOROMETHYL)-3- THIENYL]OXY]-6H,17H- DIPYRIDO[1,2-e:2′,3′-b][1,5] OXAAZACYCLODODECIN- 12YL]CARBONYL]-4- PIPERIDINYL]PHENOXY] PROPYL]CYCLOBUTANE- CARBOXYLIC ACID.] were 1 to 100 nM and 101 to 500 nM.
Turning to `O=C1c2c(C(F)(F)F)ccnc2OCCCCCCC[C@H]2N1CCC[C@@]2(Oc1csc(C(F)(F)F)c1)C(=O)N1CCN(c2ccccc2OCCO)CC1` [Compound 7, 1-[[(12aR)-6,7,8,9,10,11,12,12a, 13,14,15,16-DODECAHYDRO- 18-OXO-1- (TRIFLUOROMETHYL)- 13(S)-[[5- (TRIFLUOROMETHYL)-3- THIENYL]OXY]-18H- DIPYRIDO[1,2-e:2′,3′-b][1,5] OXAAZACYCLOTRIDECIN- 13-YL]CARBONYL]-4- [2-(2- HYDROXYETHOXY) PHENYL]PIPERAZINE.], on HDM2 protein (class symbol), the IC50 fell in the range of 1 to 100 nM.
With `COCCOc1ccccc1N1CCN(C(=O)[C@]2(Oc3csc(C(F)(F)F)c3)CCCN3C(=O)c4c(C(F)(F)F)ccnc4OCCCC/C=C/C[C@@H]32)CC1` [Compound 3, 1-[[(12aR)- 6,7,8,9,12,12a,13,14,15,16- DECAHYDRO-18-OXO-1- (TRIFLUOROMETHYL)- 13(S)-[[5- (TRIFLUOROMETHYL)-3- THIENYL]OXY]-18H- DIPYRIDO[1,2-e:2′,3′-b][1,5] OXAAZACYCLOTRIDECIN- 13-YL]CARBONYL]-4- [2-(2-METHOXYETHOXY) PHENYL]PIPERAZINE.], the IC50 on HDM2 protein (class symbol) was in the range of 1 to 100 nM; in the assay with SJSA (class symbol) it was 1000 to 3000 nM.
In the case of `O=C1c2c(C(F)(F)F)ccnc2OCCCC/C=C\C[C@H]2N1CCC[C@@]2(Oc1csc(C(F)(F)F)c1)C(=O)N1CCN(c2ccccc2OCCO)CC1` [Compound 6, 1-[[(12aR)- 6,7,8,9,12,12a,13,14,15,16- DECAHYDRO-18-OXO-1- (TRIFLUOROMETHYL)- 13-[[5- (TRIFLUOROMETHYL)-3- THIENYL]OXY]-18H- DIPYDRIDO[1,2-e:2′,3′-b][1,5] OXAAZACYCLOTRIDECIN- 13(S)-YL]CARBONYL]-4- [2-(2-HYDROXYETHOXY) PHENYL]PIPERAZINE.], the IC50 was determined as 20 nM at HDM2 protein (number) and 642 nM with SJSA (number).
Regarding `O=C1c2c(C(F)(F)F)ccnc2OCCCCCC[C@H]2N1CCC[C@@]2(Oc1csc(C(F)(F)F)c1)C(=O)N1CCN(c2ccccc2OCCO)CC1` [Compound 5, 1-[[(11aR)- 7,8,9,10,11,11a,12,13,14,15- DECAHYDRO-17-OXO-1- (TRIFLUOROMETHYL)- 12-[[5- (TRIFLUOROMETHYL)-3- THIENYL]OXY]-6H,17H- DIPYDRIDO[1,2-e:2′,3′-b][1,5] OXAAZACYCLODODECIN- 12(S)-YL]CARBONYL]-4- [2-(2-HYDROXYETHOXY) PHENYL]PIPERAZINE.], the IC50 fell in the range of 1 to 100 nM at HDM2 protein (class symbol) and 1000 to 3000 nM with SJSA (class symbol).
Taken in the same sequence, the figures for `O=C1c2c(C(F)(F)F)ccnc2OCC/C=C/C[C@H]2N1CCC[C@@]2(Oc1csc(C(F)(F)F)c1)C(=O)N1CCN(c2ccccc2OCCO)CC1` [Compound 2, 1-[2-(2- HYDROXYETHOXY) PHENYL]-4-[[(10aR)- 6,7,10,10a,11,12,13,14- OCTAHYDRO-16- OXO-1- (TRIFLUOROMETHYL)- 11(S)-[[5- (TRIFLUOROMETHYL)-3- THIENYL]OXY]-16H- PYRIDO[1,2-e:2′,3′-b][1,5] OXAAZACYCLOUNDECIN- 11-YL]CARBONYL] PIPERAZINE.] were 1 to 100 nM and 501 to 1000 nM.
Taken in the same sequence, the figures for `O=C(O)CCCOc1ccccc1N1CCN(C(=O)[C@]2(Oc3csc(C(F)(F)F)c3)CCCN3C(=O)c4c(C(F)(F)F)ccnc4OCCC/C=C\C[C@@H]32)CC1` [Compound 8, 4-[2-[4-[[(11aR)- 7,8,11,11a,12,13,14,15- OCTAHYDRO-17-OXO-1- (TRIFLUOROMETHYL)- 12(S)-[[5- (TRIFLUOROMETHYL)-3- THIENYL]OXY]-6H,17H- DIPYRIDO[1,2-e:2′,3′-b][1,5] OXAAZACYCLODODECIN- 12-YL]CARBONYL]-1- PIPERAZINYL]PHENOXY] BUTANOIC ACID.] were 1 to 100 nM and 101 to 500 nM.
Taken in the same sequence, the figures for `O=C1c2c(C(F)(F)F)ccnc2OCCC/C=C\C[C@H]2N1CCC[C@@]2(Oc1csc(C(F)(F)F)c1)C(=O)N1CCN(c2ccccc2OCCO)CC1` [Compound 4, 1-[2-(2- HYDROXYETHOXY) PHENYL]-4-[[(11aR)- 7,8,11,11a,12,13,14,15- OCTAHYDRO-17-OXO-1- (TRIFLUOROMETHYL)- 12(S)-[[5- (TRIFLUOROMETHYL)-3- THIENYL]OXY]-6H,17H- DIPYRIDO[1,2-e:2′,3′-b][1,5] OXAAZACYCLODODECIN- 12-YL]CARBONYL] PIPERAZINE.] were 1 to 100 nM and 501 to 1000 nM.
